In ChEMBL document CHEMBL4334526, “Synthesis of Peptoid-Based Class I-Selective Histone Deacetylase Inhibitors with Chemosensitizing Properties” (J Med Chem, 2019):
pIC50: −log10 of the molar value. Activity calls are given as the source filed them. No cut-off for these calls is given here.

Columns and labels:
[1] = target: T1, Protein deacetylase HDAC6 (Homo sapiens, UniProt Q9UBN7); assay: Inhibition of human full length N-terminal GST-tagged HDAC6 expressed in baculovirus infected Sf9 insect cells ZMAL as substrate incubated for 90 mins by fluorescence assay; format: cell-based
T1 sequence (Q9UBN7 whole entry): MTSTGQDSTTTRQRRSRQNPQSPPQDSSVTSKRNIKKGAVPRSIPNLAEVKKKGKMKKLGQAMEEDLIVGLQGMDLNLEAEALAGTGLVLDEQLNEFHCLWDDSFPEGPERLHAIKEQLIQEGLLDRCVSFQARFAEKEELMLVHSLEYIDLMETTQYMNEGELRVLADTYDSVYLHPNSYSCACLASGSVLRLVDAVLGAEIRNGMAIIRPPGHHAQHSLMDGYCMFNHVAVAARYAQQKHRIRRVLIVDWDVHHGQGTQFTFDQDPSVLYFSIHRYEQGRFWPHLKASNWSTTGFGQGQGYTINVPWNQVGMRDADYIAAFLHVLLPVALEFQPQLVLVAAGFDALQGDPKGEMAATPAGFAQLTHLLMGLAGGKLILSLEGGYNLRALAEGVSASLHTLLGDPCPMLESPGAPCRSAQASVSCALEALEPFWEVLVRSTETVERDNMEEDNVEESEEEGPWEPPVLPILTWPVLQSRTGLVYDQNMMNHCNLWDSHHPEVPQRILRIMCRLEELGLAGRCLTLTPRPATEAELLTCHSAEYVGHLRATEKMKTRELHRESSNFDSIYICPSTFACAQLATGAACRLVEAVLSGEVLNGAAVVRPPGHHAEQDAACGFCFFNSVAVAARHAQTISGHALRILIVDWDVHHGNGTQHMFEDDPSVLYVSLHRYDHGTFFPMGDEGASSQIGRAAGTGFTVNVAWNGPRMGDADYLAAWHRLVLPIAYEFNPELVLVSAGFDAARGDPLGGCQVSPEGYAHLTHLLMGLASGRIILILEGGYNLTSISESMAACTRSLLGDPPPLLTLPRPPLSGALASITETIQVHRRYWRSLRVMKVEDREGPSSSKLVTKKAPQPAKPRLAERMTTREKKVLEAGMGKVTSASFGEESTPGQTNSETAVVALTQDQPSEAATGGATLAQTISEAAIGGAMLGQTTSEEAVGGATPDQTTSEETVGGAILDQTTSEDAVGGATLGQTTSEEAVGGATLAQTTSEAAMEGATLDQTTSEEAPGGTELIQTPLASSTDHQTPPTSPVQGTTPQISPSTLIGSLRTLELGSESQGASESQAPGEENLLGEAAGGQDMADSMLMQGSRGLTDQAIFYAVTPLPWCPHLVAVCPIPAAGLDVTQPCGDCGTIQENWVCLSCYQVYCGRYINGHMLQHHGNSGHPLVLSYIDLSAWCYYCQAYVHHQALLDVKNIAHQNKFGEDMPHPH

[2] = target: Histone deacetylase 3/Nuclear receptor corepressor 2 (HDAC3/NCoR2) (Homo sapiens, UniProt O15379); assay: biochemical; format: cell-based, Sf9
Description: Inhibition of human recombinant full length C-terminal His-tagged HDAC3 (1 to 428 residues)/N-terminal GST-tagged NCOR2 (395 to 489 residues) expressed in baculovirus infected Sf9 insect cells using Boc-Lys(epsilon-acetyl)-AMC as substrate incubated for 90 mins by fluorescence assay

[3] = target: T2, Histone deacetylase 2 (Homo sapiens, UniProt Q92769); assay: Inhibition of recombinant human full length C-terminal FLAG-tagged HDAC2 expressed in baculovirus infected Sf9 insect cells using Boc-Lys(epsilon-acetyl)-AMC as substrate incubated for 90 mins by fluorescence assay; format: cell-based
[4] = target: Histone deacetylase 1 (Homo sapiens, UniProt Q13547); assay: Inhibition of recombinant human full length C-terminal His/FLAG-tagged HDAC1 expressed in baculovirus infected Sf9 insect cells using ZMAL as substrate incubated for 90 mins by fluorescence assay
[5] = system: A2780; assay: Cytotoxicity against human A2780 cells assessed as reduction in cell survival measured after 72 hrs by MTT assay; format: functional, cell-based; details: A2780, 72 h
[6] = system: CAL-27; assay: Cytotoxicity against human CAL27 cells assessed as reduction in cell survival measured after 72 hrs by MTT assay; format: functional, cell-based; details: CAL-27, 72 h
[7] = target: Histone deacetylase; assay: Inhibition of HDAC in human A2780 cells using Boc-Lys(epsilon-Ac)-AMC as substrate preincubated for 18 hrs followed by substrate addition and measured after 3 hrs by fluorescence assay; format: cell-based
[8] = target: Histone deacetylase; assay: Inhibition of HDAC in human CAL27 cells using Boc-Lys(epsilon-Ac)-AMC as substrate preincubated for 18 hrs followed by substrate addition and measured after 3 hrs by fluorescence assay; format: cell-based
[9] = target: T2, Histone deacetylase 2; assay: Inhibition of recombinant human full length C-terminal FLAG-tagged HDAC2 expressed in baculovirus infected Sf9 insect cells at 10 uM using Boc-Lys(epsilon-acetyl)-AMC as substrate incubated for 90 mins by fluorescence assay relative to control
[10] = target: Histone deacetylase 3/Nuclear receptor corepressor 2 (HDAC3/NCoR2) (Homo sapiens) (UniProt O15379+Q9Y618); assay: Inhibition of human recombinant full length C-terminal His-tagged HDAC3 (1 to 428 residues)/N-terminal GST-tagged NCOR2 (395 to 489 residues) expressed in baculovirus infected Sf9 insect cells at 10 uM using Boc-Lys(epsilon-acetyl)-AMC as substrate incubated for 90 mins by fluorescence assay relative to control
[11] = target: T2, Histone deacetylase 2; assay: Inhibition of recombinant human full length C-terminal FLAG-tagged HDAC2 expressed in baculovirus infected Sf9 insect cells at 3.33 uM using Boc-Lys(epsilon-acetyl)-AMC as substrate incubated for 90 mins by fluorescence assay relative to control
[12] = system: A2780; assay: Cytotoxicity against human A2780 cells assessed as reduction in cell survival up to 100 uM measured after 72 hrs by MTT assay; format: functional, cell-based
[13] = system: CAL-27; assay: Potency index, ratio of vorinostat IC50 to test compound IC50 for cytotoxicity against human CAL27 cells; format: functional

Histone deacetylase 1, sequence (Q13547 whole entry): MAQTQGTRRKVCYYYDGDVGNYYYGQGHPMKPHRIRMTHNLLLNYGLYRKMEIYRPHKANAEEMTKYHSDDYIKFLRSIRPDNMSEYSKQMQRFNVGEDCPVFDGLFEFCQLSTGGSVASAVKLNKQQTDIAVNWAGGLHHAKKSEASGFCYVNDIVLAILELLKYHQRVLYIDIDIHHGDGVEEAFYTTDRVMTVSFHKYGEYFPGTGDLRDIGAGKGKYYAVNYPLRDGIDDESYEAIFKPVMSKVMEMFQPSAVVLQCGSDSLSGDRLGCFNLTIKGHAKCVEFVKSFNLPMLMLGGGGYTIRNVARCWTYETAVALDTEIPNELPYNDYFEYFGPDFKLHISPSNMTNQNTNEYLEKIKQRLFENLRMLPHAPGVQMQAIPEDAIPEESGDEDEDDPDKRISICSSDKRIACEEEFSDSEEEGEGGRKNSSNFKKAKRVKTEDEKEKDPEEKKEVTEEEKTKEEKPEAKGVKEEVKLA
Histone deacetylase 3/Nuclear receptor corepressor 2 (HDAC3/NCoR2), sequence (O15379 whole entry): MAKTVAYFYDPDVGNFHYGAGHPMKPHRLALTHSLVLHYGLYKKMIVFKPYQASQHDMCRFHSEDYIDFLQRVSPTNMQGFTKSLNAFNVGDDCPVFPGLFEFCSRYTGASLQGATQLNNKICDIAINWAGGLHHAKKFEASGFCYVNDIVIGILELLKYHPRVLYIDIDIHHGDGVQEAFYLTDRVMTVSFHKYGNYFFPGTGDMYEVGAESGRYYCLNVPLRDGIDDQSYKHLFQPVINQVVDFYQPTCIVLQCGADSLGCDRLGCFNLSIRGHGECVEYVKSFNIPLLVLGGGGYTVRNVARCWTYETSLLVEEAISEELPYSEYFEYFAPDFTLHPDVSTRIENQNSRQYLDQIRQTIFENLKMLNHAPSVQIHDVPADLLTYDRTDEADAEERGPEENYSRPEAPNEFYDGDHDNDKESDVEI
Histone deacetylase 3/Nuclear receptor corepressor 2 (HDAC3/NCoR2), sequence (Q9Y618 whole entry, further chain): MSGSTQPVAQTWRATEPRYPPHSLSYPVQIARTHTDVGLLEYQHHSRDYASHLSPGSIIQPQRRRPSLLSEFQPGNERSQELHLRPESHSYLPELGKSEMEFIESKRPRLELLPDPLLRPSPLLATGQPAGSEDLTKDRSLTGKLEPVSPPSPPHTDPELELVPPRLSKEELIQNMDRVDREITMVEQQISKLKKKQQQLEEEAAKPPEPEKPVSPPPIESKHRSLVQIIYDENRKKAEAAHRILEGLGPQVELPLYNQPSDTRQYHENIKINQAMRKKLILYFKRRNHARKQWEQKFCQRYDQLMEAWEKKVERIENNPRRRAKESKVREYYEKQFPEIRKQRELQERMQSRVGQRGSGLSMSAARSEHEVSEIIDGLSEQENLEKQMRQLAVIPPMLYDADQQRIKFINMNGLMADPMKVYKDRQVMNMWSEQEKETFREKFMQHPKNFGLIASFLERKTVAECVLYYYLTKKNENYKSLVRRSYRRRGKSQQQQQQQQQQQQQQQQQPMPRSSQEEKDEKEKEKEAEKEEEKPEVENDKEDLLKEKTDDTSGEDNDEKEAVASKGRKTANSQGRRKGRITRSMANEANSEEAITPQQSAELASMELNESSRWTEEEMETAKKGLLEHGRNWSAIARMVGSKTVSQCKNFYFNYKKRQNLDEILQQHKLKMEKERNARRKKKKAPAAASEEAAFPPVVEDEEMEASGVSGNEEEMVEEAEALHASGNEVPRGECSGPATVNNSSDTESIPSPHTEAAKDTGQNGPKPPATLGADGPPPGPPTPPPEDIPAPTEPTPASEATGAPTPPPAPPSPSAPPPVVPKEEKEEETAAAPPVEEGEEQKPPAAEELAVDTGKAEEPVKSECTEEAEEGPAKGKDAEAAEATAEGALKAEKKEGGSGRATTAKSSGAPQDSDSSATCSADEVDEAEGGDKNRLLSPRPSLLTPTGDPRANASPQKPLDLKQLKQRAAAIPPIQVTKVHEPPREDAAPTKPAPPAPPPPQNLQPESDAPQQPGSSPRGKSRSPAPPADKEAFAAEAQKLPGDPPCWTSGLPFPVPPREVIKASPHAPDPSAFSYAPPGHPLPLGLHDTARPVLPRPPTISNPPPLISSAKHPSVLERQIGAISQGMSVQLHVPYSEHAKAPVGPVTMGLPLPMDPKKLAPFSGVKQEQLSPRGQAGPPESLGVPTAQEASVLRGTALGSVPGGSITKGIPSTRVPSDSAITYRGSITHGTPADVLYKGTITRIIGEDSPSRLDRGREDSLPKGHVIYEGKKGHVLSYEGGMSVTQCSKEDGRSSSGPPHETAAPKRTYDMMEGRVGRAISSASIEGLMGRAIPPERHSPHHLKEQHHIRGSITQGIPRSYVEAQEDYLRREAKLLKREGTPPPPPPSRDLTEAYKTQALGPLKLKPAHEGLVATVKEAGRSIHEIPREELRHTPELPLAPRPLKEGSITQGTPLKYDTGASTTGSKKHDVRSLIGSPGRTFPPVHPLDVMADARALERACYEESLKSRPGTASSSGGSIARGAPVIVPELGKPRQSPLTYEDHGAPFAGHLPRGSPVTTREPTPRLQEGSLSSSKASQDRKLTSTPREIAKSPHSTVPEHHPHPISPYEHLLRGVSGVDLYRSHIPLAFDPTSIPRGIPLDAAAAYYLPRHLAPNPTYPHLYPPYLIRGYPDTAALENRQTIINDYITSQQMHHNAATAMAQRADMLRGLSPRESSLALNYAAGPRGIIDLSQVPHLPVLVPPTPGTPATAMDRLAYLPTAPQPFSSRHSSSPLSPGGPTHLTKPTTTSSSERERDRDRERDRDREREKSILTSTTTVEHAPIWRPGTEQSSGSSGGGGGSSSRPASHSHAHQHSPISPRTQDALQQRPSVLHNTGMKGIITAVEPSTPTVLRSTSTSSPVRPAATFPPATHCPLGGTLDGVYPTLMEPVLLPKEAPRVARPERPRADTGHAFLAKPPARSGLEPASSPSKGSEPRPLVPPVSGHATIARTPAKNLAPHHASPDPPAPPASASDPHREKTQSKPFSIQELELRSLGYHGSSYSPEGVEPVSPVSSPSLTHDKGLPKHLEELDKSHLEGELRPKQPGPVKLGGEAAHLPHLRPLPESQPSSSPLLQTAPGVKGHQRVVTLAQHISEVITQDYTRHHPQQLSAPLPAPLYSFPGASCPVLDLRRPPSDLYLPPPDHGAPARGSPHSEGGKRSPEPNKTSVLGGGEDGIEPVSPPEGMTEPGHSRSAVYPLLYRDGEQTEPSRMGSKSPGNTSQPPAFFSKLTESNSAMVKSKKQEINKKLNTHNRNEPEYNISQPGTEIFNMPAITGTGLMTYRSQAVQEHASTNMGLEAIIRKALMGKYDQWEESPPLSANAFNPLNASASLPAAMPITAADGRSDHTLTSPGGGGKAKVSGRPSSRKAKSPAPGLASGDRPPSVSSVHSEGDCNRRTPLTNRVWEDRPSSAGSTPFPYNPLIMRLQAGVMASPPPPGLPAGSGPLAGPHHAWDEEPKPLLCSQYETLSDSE
T2 sequence (Q92769 whole entry): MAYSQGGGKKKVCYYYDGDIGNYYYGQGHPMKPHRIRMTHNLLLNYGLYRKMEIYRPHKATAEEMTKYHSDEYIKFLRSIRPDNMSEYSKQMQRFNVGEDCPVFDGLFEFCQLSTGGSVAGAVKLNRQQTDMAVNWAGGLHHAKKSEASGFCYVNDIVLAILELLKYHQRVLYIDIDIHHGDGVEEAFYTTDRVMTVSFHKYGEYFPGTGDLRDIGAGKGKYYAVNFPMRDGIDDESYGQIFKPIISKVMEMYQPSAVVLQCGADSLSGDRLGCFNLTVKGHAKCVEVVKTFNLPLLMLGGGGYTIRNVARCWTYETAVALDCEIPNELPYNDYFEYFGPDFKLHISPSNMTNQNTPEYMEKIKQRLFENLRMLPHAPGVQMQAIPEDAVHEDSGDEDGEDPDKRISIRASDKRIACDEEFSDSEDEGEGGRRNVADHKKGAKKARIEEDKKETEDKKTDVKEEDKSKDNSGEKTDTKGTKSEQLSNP

pIC50 [1] | pIC50 [2] | pIC50 [3] | pIC50 [4] | IC50 [7] [µM] | IC50 [8] [µM] | inhibition [9] [%] | inhibition [10] [%] | inhibition [11] [%] | Structure (SMILES) | pIC50 [5] | pIC50 [6] | Activity [12] | Ratio IC50 [13]
< 5.00 | 6.07 | 5.23 | 5.26 | 43.6 | 21.9 |  |  |  | Nc1ccccc1NC(=O)CCCCCN(CC(=O)NC1CCCCC1)C(=O)c1ccccc1 | 3.74 | 4.51 |  | 
< 5.00 |  |  | 5.68 | 3.53 | 4.81 | 30 | 49 |  | COc1ccc(CNC(=O)CN(CCCCCC(=O)Nc2ccccc2N)C(=O)c2cc(C)cc(C)c2)cc1 | 4.61 | 4.76 |  | 
< 5.00 | 6.79 | 5.72 | 5.78 | 10.2 | 4.13 |  |  |  | Nc1ccccc1NC(=O)CCCCCN(CC(=O)NCc1ccccc1)C(=O)c1cccc2ccccc12 | 4.64 | 4.96 |  | 
< 5.00 | 6.32 | 5.18 | 5.26 | 22.8 | 12.1 |  |  |  | Cc1cc(C)cc(C(=O)N(CCCCCC(=O)Nc2ccccc2N)CC(=O)NC2CCCCC2)c1 | 4.38 | 4.76 |  | 
< 5.00 | 6.19 | 5.27 | 5.18 | 33.1 | 13 |  |  |  | Nc1ccccc1NC(=O)CCCCCN(CC(=O)NC1CCCCC1)C(=O)c1cccc2ccccc12 | 4.74 | 4.60 |  | 
< 5.00 | < 5.00 |  | 7.41 | 2.62 | 0.85 |  | < 15 | 36 | CN(C)c1ccc(C(=O)N(CC(=O)NCc2ccccc2)Cc2ccc(C(=O)Nc3cc(-c4ccccc4)ccc3N)cc2)cc1 |  | 4.95 | inactive | 
< 5.00 | 6.60 | 5.80 | 5.94 | 8.71 | 3.93 |  |  |  | Cc1cc(C)cc(C(=O)N(CCCCCC(=O)Nc2ccccc2N)CC(=O)NCc2ccccc2)c1 | 4.68 | 4.86 |  | 
< 5.00 | 6.06 | 6.10 | 6.99 | 1.06 | 1.01 |  |  |  | Nc1ccccc1NC(=O)c1ccc(CN(CC(=O)NCc2ccccc2)C(=O)c2cccnc2)cc1 | 5.05 | 4.95 |  | 
< 5.00 | 6.51 | 5.91 | 5.80 | 9.25 | 4.33 |  |  |  | CN(C)c1ccc(C(=O)N(CCCCCC(=O)Nc2ccccc2N)CC(=O)NCc2ccccc2)cc1 | 4.73 | 4.80 |  | 
< 5.00 | 6.23 | 5.39 | 6.32 | 3.17 | 3.15 |  |  |  | Cc1cc(C)cc(CNC(=O)CN(CCCCCC(=O)Nc2ccccc2N)C(=O)c2cc(C)cc(C)c2)c1 | 5.29 | 4.71 |  | 
< 5.00 | 6.43 | 5.51 | 5.70 | 13.4 | 6.82 |  |  |  | CN(C)c1ccc(C(=O)N(CCCCCC(=O)Nc2cc(F)ccc2N)CC(=O)NCc2ccccc2)cc1 | 4.59 | 4.69 |  | 
< 5.00 |  |  | 6.56 | 1.43 | 0.47 | 25 | 23 |  | Cc1cc(C)cc(C(=O)N(CC(=O)NCc2ccccc2)Cc2ccc(C(=O)Nc3cc(F)ccc3N)cc2)c1 | 5.27 | 5.24 |  | 
< 5.00 | 6.32 | 5.30 | 5.96 | 4.48 | 4.57 |  |  |  | Cc1ccc(CNC(=O)CN(CCCCCC(=O)Nc2ccccc2N)C(=O)c2cc(C)cc(C)c2)cc1 | 5.01 | 4.74 |  | 
< 5.00 |  | 6.31 | 7.21 | 0.81 | 0.18 |  | 32 |  | Cc1cc(C)cc(C(=O)N(CC(=O)NCc2ccccc2)Cc2ccc(C(=O)Nc3ccccc3N)cc2)c1 | 5.55 | 5.80 |  | 1.7
